One assay deals with D(1A) dopamine receptor (Homo sapiens, UniProt P21728). The assay is classed as functional, cell-based.
The target in assay [1] is Delta-type opioid receptor (Homo sapiens, UniProt P41143).
Assay [2] has as its target Growth hormone secretagogue receptor type 1 (Homo sapiens, UniProt Q92847).
For another assay, the target named is Motilin receptor (Homo sapiens, UniProt O43193).
For assay [3], the target named is Sodium-dependent dopamine transporter (Homo sapiens, UniProt Q01959).
Chain of Sodium-dependent dopamine transporter (Q01959 whole entry): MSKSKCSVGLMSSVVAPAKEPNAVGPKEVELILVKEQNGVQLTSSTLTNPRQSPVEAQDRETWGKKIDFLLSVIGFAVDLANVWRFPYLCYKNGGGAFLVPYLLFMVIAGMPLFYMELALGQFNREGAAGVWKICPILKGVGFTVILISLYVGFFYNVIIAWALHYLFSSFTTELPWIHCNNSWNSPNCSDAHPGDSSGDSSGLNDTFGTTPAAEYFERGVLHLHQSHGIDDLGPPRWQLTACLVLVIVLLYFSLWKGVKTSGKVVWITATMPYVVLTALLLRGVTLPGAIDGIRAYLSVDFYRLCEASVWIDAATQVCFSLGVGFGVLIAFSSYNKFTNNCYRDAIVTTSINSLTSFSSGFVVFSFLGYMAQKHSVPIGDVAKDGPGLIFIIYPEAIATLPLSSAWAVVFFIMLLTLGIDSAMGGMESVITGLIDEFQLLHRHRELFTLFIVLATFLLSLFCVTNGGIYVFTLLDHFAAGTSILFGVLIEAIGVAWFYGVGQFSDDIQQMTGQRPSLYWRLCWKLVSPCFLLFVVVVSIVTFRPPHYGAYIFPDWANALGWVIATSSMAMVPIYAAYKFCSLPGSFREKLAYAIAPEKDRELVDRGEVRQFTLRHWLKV
Assay [4] deals with T1, Cholecystokinin receptor type A (Homo sapiens, UniProt P32238).
T1 sequence (P32238 whole entry): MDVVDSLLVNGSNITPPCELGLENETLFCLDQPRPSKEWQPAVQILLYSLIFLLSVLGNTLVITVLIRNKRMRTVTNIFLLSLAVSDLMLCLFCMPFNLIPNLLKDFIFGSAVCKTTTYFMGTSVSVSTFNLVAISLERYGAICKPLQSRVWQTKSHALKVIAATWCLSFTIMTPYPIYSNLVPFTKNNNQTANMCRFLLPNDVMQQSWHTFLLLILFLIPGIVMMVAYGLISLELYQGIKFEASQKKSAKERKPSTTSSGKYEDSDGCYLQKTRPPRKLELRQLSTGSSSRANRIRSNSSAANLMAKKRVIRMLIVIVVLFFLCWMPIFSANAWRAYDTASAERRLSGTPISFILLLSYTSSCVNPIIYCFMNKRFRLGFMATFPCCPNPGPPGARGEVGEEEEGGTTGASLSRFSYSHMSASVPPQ

In assay [5] the target is T2, 5-hydroxytryptamine receptor 1A (Homo sapiens, UniProt P08908).
T2 sequence (P08908 whole entry): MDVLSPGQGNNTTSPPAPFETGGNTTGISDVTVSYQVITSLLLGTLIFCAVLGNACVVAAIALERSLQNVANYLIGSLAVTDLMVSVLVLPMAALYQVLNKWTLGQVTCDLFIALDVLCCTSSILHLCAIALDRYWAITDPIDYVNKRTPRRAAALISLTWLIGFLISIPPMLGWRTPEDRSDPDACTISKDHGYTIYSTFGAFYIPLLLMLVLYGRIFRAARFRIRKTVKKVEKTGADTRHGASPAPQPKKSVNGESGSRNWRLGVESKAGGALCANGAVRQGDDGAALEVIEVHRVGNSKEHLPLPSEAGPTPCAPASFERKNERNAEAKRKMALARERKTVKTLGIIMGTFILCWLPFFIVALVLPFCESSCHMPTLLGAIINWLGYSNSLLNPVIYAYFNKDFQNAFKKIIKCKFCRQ
The assay is classed as functional, cell-based.

The target in assay [6] is T3, Alpha-2A adrenergic receptor (Homo sapiens, UniProt P08913).
T3 sequence (P08913 whole entry): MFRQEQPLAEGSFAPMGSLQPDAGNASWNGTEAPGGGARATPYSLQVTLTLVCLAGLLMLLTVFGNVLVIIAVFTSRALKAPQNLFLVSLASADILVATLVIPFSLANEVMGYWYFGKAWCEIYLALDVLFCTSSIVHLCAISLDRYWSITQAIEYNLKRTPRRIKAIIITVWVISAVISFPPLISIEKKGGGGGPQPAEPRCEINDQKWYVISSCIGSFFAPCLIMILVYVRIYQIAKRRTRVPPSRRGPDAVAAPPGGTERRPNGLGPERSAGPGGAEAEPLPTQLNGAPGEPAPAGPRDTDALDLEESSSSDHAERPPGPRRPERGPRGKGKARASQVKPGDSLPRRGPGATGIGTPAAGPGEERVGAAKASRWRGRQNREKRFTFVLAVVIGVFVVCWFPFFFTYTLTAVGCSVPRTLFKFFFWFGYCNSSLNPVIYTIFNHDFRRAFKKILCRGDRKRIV
The assay is classed as functional, cell-based.

Assay [7] has as its target cGMP-inhibited 3',5'-cyclic phosphodiesterase 3A (Homo sapiens, UniProt Q14432). It counts as functional.
For another assay, the target named is Bile salt export pump (Homo sapiens, UniProt O95342). It counts as functional.
Chain of Bile salt export pump (O95342 whole entry): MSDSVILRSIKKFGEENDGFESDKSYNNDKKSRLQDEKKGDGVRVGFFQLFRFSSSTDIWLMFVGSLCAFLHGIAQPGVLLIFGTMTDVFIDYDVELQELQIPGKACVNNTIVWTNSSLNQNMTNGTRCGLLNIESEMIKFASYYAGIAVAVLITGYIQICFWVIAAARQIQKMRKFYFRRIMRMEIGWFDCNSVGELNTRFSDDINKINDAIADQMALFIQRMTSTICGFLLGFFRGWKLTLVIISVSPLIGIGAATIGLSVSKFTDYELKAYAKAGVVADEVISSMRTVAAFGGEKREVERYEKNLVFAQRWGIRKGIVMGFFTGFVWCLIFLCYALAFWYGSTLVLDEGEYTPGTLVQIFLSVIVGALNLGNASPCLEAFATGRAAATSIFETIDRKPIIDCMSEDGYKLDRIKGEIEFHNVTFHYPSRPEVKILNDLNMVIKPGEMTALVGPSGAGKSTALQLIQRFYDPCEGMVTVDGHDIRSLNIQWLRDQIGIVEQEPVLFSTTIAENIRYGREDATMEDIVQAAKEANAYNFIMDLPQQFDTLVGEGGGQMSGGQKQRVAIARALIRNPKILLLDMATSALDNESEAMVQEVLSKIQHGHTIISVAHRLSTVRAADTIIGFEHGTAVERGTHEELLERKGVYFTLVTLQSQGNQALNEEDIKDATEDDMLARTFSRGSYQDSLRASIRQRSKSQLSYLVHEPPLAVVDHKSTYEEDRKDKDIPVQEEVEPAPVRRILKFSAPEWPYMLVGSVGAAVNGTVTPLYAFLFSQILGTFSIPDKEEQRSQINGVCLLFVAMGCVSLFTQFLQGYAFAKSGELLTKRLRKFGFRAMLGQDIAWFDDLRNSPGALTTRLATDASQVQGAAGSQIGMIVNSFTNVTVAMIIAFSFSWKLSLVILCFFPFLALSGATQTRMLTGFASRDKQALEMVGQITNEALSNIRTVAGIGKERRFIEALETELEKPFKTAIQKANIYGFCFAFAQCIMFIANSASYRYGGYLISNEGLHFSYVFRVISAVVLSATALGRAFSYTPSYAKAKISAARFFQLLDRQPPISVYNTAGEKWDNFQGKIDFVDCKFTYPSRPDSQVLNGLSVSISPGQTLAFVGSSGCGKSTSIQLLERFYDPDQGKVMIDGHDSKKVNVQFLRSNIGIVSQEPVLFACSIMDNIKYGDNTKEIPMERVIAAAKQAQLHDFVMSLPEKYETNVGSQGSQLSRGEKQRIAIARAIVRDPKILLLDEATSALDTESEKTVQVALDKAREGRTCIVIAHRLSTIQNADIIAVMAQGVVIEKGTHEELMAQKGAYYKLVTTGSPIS
In assay [8] the target is T4, Muscarinic acetylcholine receptor M2 (Homo sapiens, UniProt P08172).
T4 sequence (P08172 whole entry): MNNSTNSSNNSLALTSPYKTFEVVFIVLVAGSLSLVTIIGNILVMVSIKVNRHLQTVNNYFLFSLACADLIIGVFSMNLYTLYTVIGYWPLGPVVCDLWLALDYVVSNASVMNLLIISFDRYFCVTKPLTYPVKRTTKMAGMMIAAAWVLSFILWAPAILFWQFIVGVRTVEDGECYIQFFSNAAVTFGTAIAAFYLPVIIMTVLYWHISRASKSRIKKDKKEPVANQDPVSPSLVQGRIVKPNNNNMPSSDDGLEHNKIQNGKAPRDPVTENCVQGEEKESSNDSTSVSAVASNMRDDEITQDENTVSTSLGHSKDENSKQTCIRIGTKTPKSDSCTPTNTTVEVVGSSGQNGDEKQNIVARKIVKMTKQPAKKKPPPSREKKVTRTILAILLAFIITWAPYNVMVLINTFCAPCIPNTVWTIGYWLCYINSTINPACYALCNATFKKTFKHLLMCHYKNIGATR
It counts as functional, cell-based.

The target in assay [9] is T5, Equilibrative nucleoside transporter 1 (Homo sapiens, UniProt Q99808).
T5 sequence (Q99808 whole entry): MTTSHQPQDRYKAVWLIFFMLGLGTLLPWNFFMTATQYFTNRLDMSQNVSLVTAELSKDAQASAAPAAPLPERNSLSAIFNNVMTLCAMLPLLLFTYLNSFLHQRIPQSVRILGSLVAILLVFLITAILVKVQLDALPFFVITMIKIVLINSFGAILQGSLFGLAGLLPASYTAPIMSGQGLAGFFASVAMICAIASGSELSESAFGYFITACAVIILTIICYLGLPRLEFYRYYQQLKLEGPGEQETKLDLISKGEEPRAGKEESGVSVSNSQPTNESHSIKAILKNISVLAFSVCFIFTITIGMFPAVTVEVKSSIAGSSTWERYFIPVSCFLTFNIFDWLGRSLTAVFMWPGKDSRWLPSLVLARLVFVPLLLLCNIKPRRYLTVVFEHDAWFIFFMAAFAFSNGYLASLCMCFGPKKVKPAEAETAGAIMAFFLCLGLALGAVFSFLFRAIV
Also: assay procedure not described here.

Chain of Growth hormone secretagogue receptor type 1 (Q92847 whole entry): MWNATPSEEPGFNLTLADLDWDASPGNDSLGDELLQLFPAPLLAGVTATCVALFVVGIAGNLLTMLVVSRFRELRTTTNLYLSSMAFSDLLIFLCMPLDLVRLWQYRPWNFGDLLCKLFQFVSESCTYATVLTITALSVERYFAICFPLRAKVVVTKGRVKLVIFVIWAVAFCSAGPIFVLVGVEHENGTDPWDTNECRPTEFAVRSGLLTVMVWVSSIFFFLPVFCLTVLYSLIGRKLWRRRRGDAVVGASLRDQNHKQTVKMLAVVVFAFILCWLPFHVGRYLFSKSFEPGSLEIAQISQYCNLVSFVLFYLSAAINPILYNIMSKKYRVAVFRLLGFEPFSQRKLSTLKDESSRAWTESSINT
Chain of Delta-type opioid receptor (P41143 whole entry): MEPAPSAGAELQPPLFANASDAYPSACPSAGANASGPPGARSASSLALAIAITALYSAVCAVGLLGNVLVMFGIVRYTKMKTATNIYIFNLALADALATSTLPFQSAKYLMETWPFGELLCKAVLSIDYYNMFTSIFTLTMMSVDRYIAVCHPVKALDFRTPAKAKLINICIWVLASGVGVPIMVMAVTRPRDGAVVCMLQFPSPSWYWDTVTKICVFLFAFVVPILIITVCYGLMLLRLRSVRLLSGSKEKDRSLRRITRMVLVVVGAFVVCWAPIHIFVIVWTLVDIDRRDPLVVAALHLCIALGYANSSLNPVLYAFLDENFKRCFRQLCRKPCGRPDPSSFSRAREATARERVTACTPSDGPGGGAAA
Chain of Motilin receptor (O43193 whole entry): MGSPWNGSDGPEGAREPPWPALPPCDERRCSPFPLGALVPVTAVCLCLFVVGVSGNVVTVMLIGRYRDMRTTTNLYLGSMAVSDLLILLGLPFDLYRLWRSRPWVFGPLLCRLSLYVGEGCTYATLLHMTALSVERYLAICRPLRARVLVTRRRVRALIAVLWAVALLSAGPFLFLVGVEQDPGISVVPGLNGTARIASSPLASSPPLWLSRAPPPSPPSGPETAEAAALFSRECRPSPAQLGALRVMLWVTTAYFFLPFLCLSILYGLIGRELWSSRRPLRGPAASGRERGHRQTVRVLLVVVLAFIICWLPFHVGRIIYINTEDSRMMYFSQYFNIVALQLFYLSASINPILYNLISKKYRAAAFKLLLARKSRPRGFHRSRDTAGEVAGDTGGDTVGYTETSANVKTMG
Chain of cGMP-inhibited 3',5'-cyclic phosphodiesterase 3A (Q14432 whole entry): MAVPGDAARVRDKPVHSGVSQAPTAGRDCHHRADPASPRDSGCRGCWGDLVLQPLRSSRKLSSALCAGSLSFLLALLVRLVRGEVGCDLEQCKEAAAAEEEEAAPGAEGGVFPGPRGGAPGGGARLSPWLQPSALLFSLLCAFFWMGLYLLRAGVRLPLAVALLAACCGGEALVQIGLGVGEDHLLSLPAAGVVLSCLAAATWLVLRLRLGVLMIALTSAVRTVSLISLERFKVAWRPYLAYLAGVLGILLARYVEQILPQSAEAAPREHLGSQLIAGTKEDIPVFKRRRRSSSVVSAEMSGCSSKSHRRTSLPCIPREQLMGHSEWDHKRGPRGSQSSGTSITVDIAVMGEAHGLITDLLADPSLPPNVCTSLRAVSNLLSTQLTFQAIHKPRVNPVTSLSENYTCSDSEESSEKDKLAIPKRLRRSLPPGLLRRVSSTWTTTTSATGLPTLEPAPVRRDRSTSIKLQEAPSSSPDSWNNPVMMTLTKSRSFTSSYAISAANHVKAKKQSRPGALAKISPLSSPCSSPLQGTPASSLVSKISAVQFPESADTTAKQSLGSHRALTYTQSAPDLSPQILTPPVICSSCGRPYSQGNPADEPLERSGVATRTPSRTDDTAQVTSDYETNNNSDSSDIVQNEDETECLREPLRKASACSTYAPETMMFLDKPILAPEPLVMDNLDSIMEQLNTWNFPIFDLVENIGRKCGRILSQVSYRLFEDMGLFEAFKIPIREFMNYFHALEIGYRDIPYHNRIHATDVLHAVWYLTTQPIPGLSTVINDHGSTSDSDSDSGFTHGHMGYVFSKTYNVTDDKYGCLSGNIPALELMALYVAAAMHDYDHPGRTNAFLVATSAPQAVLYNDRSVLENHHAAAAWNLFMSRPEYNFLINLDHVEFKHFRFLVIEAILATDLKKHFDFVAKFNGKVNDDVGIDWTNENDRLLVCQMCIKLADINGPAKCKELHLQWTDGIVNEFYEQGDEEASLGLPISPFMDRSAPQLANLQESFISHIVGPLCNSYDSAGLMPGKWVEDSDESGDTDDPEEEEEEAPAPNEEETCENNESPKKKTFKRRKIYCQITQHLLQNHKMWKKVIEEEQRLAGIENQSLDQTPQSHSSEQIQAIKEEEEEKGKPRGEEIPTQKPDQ
Chain of D(1A) dopamine receptor (P21728 whole entry): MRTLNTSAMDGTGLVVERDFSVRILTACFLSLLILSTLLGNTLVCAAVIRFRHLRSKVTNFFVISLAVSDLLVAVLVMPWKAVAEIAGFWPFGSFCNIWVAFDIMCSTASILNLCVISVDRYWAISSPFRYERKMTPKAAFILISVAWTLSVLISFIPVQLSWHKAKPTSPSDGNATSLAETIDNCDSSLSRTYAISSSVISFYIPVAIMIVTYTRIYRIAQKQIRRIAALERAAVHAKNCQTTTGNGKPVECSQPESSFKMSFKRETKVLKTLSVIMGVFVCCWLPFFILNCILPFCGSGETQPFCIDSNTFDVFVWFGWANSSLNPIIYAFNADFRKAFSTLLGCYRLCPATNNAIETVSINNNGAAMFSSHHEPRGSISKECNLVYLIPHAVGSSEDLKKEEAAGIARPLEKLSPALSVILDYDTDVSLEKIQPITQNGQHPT

Take `C[C@@H]1O[C@@H]1P(=O)(O)O` [FOSFOMYCIN]: the half-maximal activity concentration (AC50) (as a rule, the midpoint of the concentration-response curve, whichever way the signal moves) is over 10 µM on D(1A) dopamine receptor; over 30 µM in [1]; over 10 µM in assay [2]; over 10 µM at Motilin receptor; over 10 µM in assay [3]; over 10 µM in assay [4]. Further, the AC50 was over 10 µM in [5]; over 10 µM in [6]; over 30 µM in assay [7]; over 300 µM on Bile salt export pump; over 10 µM in assay [8]; over 10 µM in assay [9].

Regarding `COc1ccc2c(c1)C(=O)N(CCc1ccc(S(=O)(=O)NC(=O)NC3CCCCC3)cc1)C(=O)C2(C)C` [GLIQUIDONE], the half-maximal activity concentration (AC50) (on D(1A) dopamine receptor; in assay [1]; in assay [2]; at Motilin receptor; in [3]; in assay [4]) was over 30 µM each time. Also, the half-maximal activity concentration (AC50) in assay [5] was over 30 µM; in [6] it was over 30 µM; in assay [7], 5.3 µM; at Bile salt export pump it was 1.7 µM; in assay [8], over 30 µM; in [9], over 30 µM.

Take `NS(=O)(=O)c1cc2c(cc1Cl)NCNS2(=O)=O` [HYDROCHLOROTHIAZIDE]: the AC50 on D(1A) dopamine receptor is over 10 µM; in assay [1] it was over 10 µM; in assay [2], over 30 µM; at Motilin receptor it was over 10 µM; in [3] it was over 10 µM; in [4], over 30 µM. The half-maximal activity concentration (AC50) in assay [5] was over 10 µM; in assay [6], over 10 µM; in assay [7] it was over 30 µM; at Bile salt export pump, over 300 µM; in [8], over 10 µM; in assay [9] it was over 30 µM.

As to `CC(C)Cc1ccc(CC(=O)O)cc1` [IBUFENAC], the AC50 (on D(1A) dopamine receptor; in assay [1]; in assay [2]; at Motilin receptor; in [3]; in [4]) was over 30 µM throughout. The AC50 in [5] is over 30 µM; in [6], over 30 µM; in [7], over 30 µM; on Bile salt export pump, over 300 µM; in [8] it was over 30 µM; in assay [9], over 30 µM.

Take `CC(C)NNC(=O)c1ccncc1` [IPRONIAZID]: the concentration at half-maximal activity (AC50) (at D(1A) dopamine receptor; in [1]; in [2]; at Motilin receptor; in [3]; in assay [4]) was over 30 µM each time. Moreover, the concentration at half-maximal activity (AC50) in assay [5] is over 30 µM; in [6], over 30 µM; in assay [7] it was over 30 µM; at Bile salt export pump, over 300 µM; in [8] it was over 30 µM; in assay [9] it was over 30 µM.

For `NC[C@H]1O[C@H](O[C@H]2[C@H](O)[C@@H](O[C@H]3O[C@H](CO)[C@@H](O)[C@H](N)[C@H]3O)[C@H](N)C[C@@H]2N)[C@H](O)[C@@H](O)[C@@H]1O` [KANAMYCIN], the AC50 on D(1A) dopamine receptor is over 30 µM; in assay [1], over 30 µM; in assay [2], over 10 µM; on Motilin receptor it was over 10 µM; in assay [3], over 10 µM; in assay [4] it was over 10 µM. Moreover, the AC50 in [5] is over 10 µM; in [6], over 10 µM; in assay [7], over 30 µM; on Bile salt export pump, over 300 µM; in assay [8] it was over 10 µM; in [9], over 10 µM.

Regarding `CN1C(=O)CC(C)(c2ccccc2)C1=O` (configuration not stated) [METHSUXIMIDE], the AC50 is over 30 µM on D(1A) dopamine receptor; over 30 µM in assay [1]; over 10 µM in [2]; over 10 µM on Motilin receptor; over 10 µM in assay [3]; over 10 µM in [4]. Besides, the half-maximal activity concentration (AC50) in assay [5] is over 10 µM; in [6], over 10 µM; in assay [7] it was over 30 µM; on Bile salt export pump, over 300 µM; in assay [8] it was over 10 µM; in [9], over 10 µM.

Turning to `C[C@H]1C[C@@H]2[C@H]([C@@H](O)C[C@@]3(C)[C@H]2CC[C@]3(O)C(=O)CO)[C@@]2(C)C=CC(=O)C=C12` [METHYLPREDNISOLONE], the concentration at half-maximal activity (AC50) at D(1A) dopamine receptor was over 30 µM; in assay [1] it was over 30 µM; in [2], over 10 µM; at Motilin receptor it was over 10 µM; in assay [3] it was over 10 µM; in [4] it was over 10 µM. Also, the concentration at half-maximal activity (AC50) in assay [5] was over 10 µM; in [6], over 10 µM; in assay [7], over 30 µM; on Bile salt export pump, 140 µM; in assay [8], over 10 µM; in [9] it was over 10 µM.

For `CC(C)(C(=O)c1cccnc1)c1cccnc1` [METYRAPONE], the AC50 on D(1A) dopamine receptor is over 10 µM; in assay [1], over 30 µM; in assay [2] it was over 10 µM; on Motilin receptor it was over 10 µM; in [3] it was over 10 µM; in assay [4] it was over 10 µM. For the same compound, the AC50 in [5] is over 10 µM; in assay [6], over 10 µM; in assay [7] it was over 30 µM; on Bile salt export pump, 280 µM; in assay [8], over 10 µM; in assay [9], over 10 µM.

As to `NC(=O)c1ncn([C@@H]2O[C@H](CO)[C@@H](O)[C@H]2O)c1O` [MIZORIBINE], the AC50 (on D(1A) dopamine receptor; in assay [1]; in [2]; at Motilin receptor; in assay [3]; in [4]) was over 30 µM throughout. Besides, the half-maximal activity concentration (AC50) in assay [5] was over 30 µM; in assay [6], over 30 µM; in assay [7], over 30 µM; on Bile salt export pump it was over 300 µM; in assay [8], over 30 µM; in [9] it was over 30 µM.

Take `COC(=O)C1=C(C)NC(C)=C(C(=O)OCC(C)C)C1c1ccccc1[N+](=O)[O-]` (configuration not stated) [NISOLDIPINE]: the AC50 is over 30 µM on D(1A) dopamine receptor; over 30 µM in assay [1]; over 10 µM in assay [2]; over 10 µM at Motilin receptor; over 10 µM in [3]; over 10 µM in [4]. Moreover, the half-maximal activity concentration (AC50) was over 10 µM in [5]; over 10 µM in [6]; 6.2 µM in [7]; 8 µM at Bile salt export pump; over 10 µM in assay [8]; over 10 µM in assay [9].

Values taken from ChEMBL document CHEMBL5291721, “A preclinical secondary pharmacology resource illuminates target-adverse drug reaction associations of marketed drugs” (Nat Commun, 2023).
